From patent US11866430B2, “Naphthyridinone compounds useful as T cell activators” (priority 2018, dated 2024)
Where two headings read alike, the source gives them in different places.

Tests used:
human DGKζ = human DGKζ (Homo sapiens (Human), UniProt Q13574); assay: DGKζ assay (detergent/lipid micelle substrate); format: biochemical; conditions: detergent/lipid micelle substrate; read-out: DGKζ IC50
Summary of the method: (§1)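 Enzymes were baculovirus/Sf9 full-length human DGKα or DGKζ with His tag. The substrate was PS/DAG in octyl glucoside micelles, in MOPS pH 7.5 buffer with NaCl, MgCl2, CaCl2 and DTT.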

[1] = test system: Jurkat AP1-luciferase Reporter; assay: DGK AP1-Reporter Assay; format: cell-based
Method: The Jurkat AP1-luciferase Reporter was generated using the Cignal Lenti AP1 Reporter (luc) Kit from SABiosciences (CLS-011L).
The sample size was 30 nl per well; and one destination plate per source plate. The cell suspensions were prepared by transferring 40 mL cells (2×20 mL) to clean 50 mL conical tubes. The cells were concentrated by centrifugation (1200 rpm; 5 mins; ambient temperature). […] The cell plates were incubated for 20 minutes at 37° C., and 5% CO2.
During the incubation, anti-CD3 antibody (αCD3) solutions were prepared by mixing 3 μl αCD3 (1.3 mg/mL) with 10 mL medium [final conc=0.4 μg/mL]. Next, 1.5 μl αCD3 (1.3 mg/mL) was mixed with 0.5 mL medium [final conc=4 μg/mL]. After 20 minutes, 10 μl medium was added to all wells in column 1, wells A to M, and 10 μl αCD3 (4 μg/mL) per well was added in column 1, rows N to P for reference. Then using a multi-channel pipette, 10 μl αCD3 (0.4 μg/mL) per well was added. The αCD3 stimulated +/− compound-treated cells were incubated at 37° C., 5% CO2 for 6 hours.
During this incubation period. Steady-Glo (Promega E2520) reagent was slowly thawed on to ambient temperature. Next, 20 μl Steady-Glo reagent per well was added using a multi-drop Combi-dispenser. Bubbles were removed by centrifugation (2000 rpm, ambient temperature, 10 sees). The cells were incubated at room temperature for 5 minutes. Samples were characterized by measuring the Relative Light Units (RLU) with an using Envision Plate Reader Instrument on a luminescence protocol.

human DGKα = human DGKα (Homo sapiens (Human), UniProt P23743); assay: biochemical
Chain of human DGKα (P23743 other isoform, or with tags, fused parts or gaps): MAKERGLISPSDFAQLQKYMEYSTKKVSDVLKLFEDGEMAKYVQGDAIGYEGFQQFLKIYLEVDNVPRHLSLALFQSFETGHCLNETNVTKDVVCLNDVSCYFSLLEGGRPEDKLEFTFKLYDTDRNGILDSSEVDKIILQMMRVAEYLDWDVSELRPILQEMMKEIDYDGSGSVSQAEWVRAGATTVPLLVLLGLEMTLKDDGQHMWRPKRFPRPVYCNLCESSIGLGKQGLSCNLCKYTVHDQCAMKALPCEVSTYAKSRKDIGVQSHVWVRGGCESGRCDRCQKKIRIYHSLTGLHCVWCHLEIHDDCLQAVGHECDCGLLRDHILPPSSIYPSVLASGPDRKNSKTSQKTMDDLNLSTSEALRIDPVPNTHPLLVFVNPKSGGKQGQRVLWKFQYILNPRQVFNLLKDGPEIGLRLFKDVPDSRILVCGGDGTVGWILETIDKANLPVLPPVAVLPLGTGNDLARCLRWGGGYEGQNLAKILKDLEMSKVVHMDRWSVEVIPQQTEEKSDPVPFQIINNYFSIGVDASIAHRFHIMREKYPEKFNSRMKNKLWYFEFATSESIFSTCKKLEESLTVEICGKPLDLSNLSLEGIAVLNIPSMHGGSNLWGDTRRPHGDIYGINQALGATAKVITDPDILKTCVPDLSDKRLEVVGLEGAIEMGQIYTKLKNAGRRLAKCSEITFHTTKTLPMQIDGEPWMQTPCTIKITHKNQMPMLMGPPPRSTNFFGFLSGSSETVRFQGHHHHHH
Summary of the method: as §1

[2] = test system: pre-activated CD4 T cells and Raji cells; assay: Raji CD4 T Cell IL2 Assay; format: cell-based; conditions: Homo sapiens, Raji
[3] = Homo sapiens, Jurkat, read-out: API-Luciferase Reporter IC50, Table 3
[4] = detergent/lipid micelle substrate, read-out: DGKα IC50
[5] = read-out: API-Luciferase Reporter IC50, Table 3

Chain of human DGKζ (Q13574 other isoform, or with tags, fused parts or gaps): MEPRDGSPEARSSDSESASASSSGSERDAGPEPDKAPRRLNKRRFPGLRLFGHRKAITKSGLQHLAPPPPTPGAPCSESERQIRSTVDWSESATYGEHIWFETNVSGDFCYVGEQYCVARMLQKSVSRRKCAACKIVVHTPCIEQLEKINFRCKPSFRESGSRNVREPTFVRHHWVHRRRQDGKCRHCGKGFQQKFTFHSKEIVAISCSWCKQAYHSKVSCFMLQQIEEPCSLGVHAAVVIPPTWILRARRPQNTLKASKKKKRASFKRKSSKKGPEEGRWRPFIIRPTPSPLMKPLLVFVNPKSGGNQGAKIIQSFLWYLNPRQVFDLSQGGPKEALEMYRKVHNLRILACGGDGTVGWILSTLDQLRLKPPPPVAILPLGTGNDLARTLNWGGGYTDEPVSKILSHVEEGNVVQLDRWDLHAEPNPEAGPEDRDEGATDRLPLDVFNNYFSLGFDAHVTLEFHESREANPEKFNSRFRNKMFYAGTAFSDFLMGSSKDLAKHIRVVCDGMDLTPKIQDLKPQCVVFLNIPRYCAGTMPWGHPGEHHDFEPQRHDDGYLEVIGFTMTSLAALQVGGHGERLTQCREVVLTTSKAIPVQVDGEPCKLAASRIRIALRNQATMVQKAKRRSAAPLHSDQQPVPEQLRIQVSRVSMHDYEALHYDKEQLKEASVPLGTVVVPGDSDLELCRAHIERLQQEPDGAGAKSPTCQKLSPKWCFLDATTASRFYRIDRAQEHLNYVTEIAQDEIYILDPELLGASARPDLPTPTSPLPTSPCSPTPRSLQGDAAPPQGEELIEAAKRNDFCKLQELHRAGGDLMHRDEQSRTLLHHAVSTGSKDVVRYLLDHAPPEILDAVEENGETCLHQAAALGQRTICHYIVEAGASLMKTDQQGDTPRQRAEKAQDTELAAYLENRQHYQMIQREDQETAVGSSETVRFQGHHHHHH

Row | Structure (SMILES) | IC50 (human DGKζ) [nM] | IC50 [1, 3] [nM] | IC50 (human DGKα; [4]) [nM] | IC50 (human DGKα; DGKα IC50, detergent/lipid micelle substrate) [nM] | IC50 [1, 5] [nM] | IC50 [2] [nM]
1 | CC(c1ccc(F)cc1)N1CCN(c2c(C#N)c(=O)n(C)c3ccc(Br)nc23)CC1 (racemic) [Example 22, 6-bromo-4-{4-[1-(4-fluorophenyl)ethyl]piperazin-1-yl}-1-methyl-2-oxo-1,2-dihydro-1,5-naphthyridine-3-carbonitrile] | > 81000 | 1530 | 70 |  |  | 
2 | CCC(c1ccc(F)cc1)N1CCN(c2c(C#N)c(=O)n(C)c3ccc(Br)nc23)CC1 (racemic) [Example 25, 6-bromo-4-{4-[1-(4-fluorophenyl)propyl]piperazin-1-yl}-1-methyl-2-oxo-1,2-dihydro-1,5-naphthyridine-3-carbonitrile] | > 81000 | 1150 | 41 |  |  | 
3 | Cn1c(=O)c(C#N)c(N2CCN(CC(O)c3ccc(F)cc3)CC2)c2nc(Br)ccc21 (racemic) [Example 28, 6-bromo-4-{4-[2-(4-fluorophenyl)-2-hydroxyethyl]piperazin-1-yl}-1-methyl-2-oxo-1,2-dihydro-1,5-naphthyridine-3-carbonitrile] | > 81000 | 4450 | 1300 |  |  | 
4 | COCCn1c(=O)c(C#N)c(N2CCN(C(c3ccc(F)cc3)c3ccc(F)cc3OC)CC2)c2nc(Br)ccc21 (racemic) [Example 114, 6-bromo-4-(4-((4-fluoro-2-methoxyphenyl)(4-fluorophenyl)methyl)piperazin-1-yl)-1-(2-methoxyethyl)-2-oxo-1,2-dihydro-1,5-naphthyridine-3-carbonitrile] | 100000 | 4120 | 120000 |  |  | 
5 | C#CCn1c(=O)c([N+](=O)[O-])c(N2CCN(C(c3ccc(F)cc3)c3ccccc3O)CC2)c2nc(C#N)ccc21 (racemic) [Example 132, 8-(4-((4-fluorophenyl)(2-hydroxyphenyl)methyl)piperazin-1-yl)-7-nitro-6-oxo-5-(prop-2-yn-1-yl)-5,6-dihydro-1,5-naphthyridine-2-carbonitrile] | 150 | 80 |  | 3300 |  | 
6 | C#CCn1c(=O)c([N+](=O)[O-])c(N2CCN(C(C)c3ccc(F)cc3)CC2)c2nc(C#N)ccc21 (racemic) [Example 135, 8-(4-(1-(4-fluorophenyl)ethyl)piperazin-1-yl)-7-nitro-6-oxo-5-(prop-2-yn-1-yl)-5,6-dihydro-1,5-naphthyridine-2-carbonitrile] | 1300 | 340 | 180 |  |  | 
7 | C#CCn1c(=O)c([N+](=O)[O-])c(N2CCN(C(CC)c3ccc(F)cc3)CC2)c2nc(C#N)ccc21 (racemic) [Example 139, 8-{4-[1-(4-fluorophenyl)propyl]piperazin-1-yl}-7-nitro-6-oxo-5-(prop-2-yn-1-yl)-5,6-dihydro-1,5-naphthyridine-2-carbonitrile] | 910 | 130 | 410 |  |  | 
8 | COCCn1c(=O)c([N+](=O)[O-])c(N2CCN(C(C)c3ccc(F)cc3)CC2)c2nc(C#N)ccc21 (racemic) [Example 148, 8-(4-(1-(4-fluorophenyl)ethyl)piperazin-1-yl)-5-(2-methoxyethyl)-7-nitro-6-oxo-5,6-dihydro-1,5-naphthyridine-2-carbonitrile] | 28000 | 870 | 15000 |  |  | 
9 | COc1ccccc1C(c1ccc(F)cc1)N1CCN(c2c([N+](=O)[O-])c(=O)n(C)c3ccc(C#N)nc23)CC1 (single isomer, unassigned) [Example 19, 8-{4-[(4-fluorophenyl)(2-methoxyphenyl)methyl]piperazin-1-yl}-5-methyl-7-nitro-6-oxo-5,6-dihydro-1,5-naphthyridine-2-carbonitrile] | 19000 |  | 13000 |  | 830 | > 100000
10 | C#CCn1c(=O)c([N+](=O)[O-])c(N2CCN(C(c3ccc(F)cc3)c3ccc(F)cc3O)CC2)c2nc(C#N)ccc21 (single isomer, unassigned) [Example 120, 8-(4-((4-fluoro-2-hydroxyphenyl)(4-fluorophenyl)methyl)piperazin-1-yl)-7-nitro-6-oxo-5-(prop-2-yn-1-yl)-5,6-dihydro-1,5-naphthyridine-2-carbonitrile] | > 81000 |  | 18000 |  | 1300 | 
11 | C#CCn1c(=O)c([N+](=O)[O-])c(N2CCN(C(c3ccc(F)cc3)c3ccccc3OC)CC2)c2nc(C#N)ccc21 (single isomer, unassigned) [Example 131, 8-(4-((4-fluorophenyl)(2-methoxyphenyl)methyl)piperazin-1-yl)-7-nitro-6-oxo-5-(prop-2-yn-1-yl)-5,6-dihydro-1,5-naphthyridine-2-carbonitrile] | 370 | 500 | 11000 |  |  | 
12 | COc1ccccc1C(c1ccc(F)cc1)N1CCN(c2c(C#N)c(=O)n(C)c3ccc(Br)nc23)CC1 (stereo not shown) [Example 12, 6-bromo-4-{4-[(4-fluorophenyl)(2-methoxyphenyl)methyl]piperazin-1-yl}-1-methyl-2-oxo-1,2-dihydro-1,5-naphthyridine-3-carbonitrile] | > 81000 | 580 | 1000 |  |  | 
13 | Cn1c(=O)c([N+](=O)[O-])c(N2CCN(C(CO)c3ccc(F)cc3)CC2)c2nc(C#N)ccc21 (stereo not shown) [Example 37, 8-{4-[1-(4-fluorophenyl)-2-hydroxyethyl]piperazin-1-yl}-5-methyl-7-nitro-6-oxo-5,6-dihydro-1,5-naphthyridine-2-carbonitrile] | 38000 | 2830 | 1800 |  |  | 
14 | CC(c1ccc(F)cc1)N1CCN(c2c([N+](=O)[O-])c(=O)n(C)c3ccc(C#N)nc23)CC1 (stereo not shown) [Example 43, 8-(4-(1-(4-fluorophenyl)ethyl)piperazin-1-yl)-5-methyl-7-nitro-6-oxo-5,6-dihydro-1,5-naphthyridine-2-carbonitrile] | 6300 | 400 | 37 |  |  | 
15 | Cn1c(=O)c(C#N)c(N2CCN(Cc3ccccc3N)CC2)c2nc(Br)ccc21 [Example 211, 4-(4-(2-aminobenzyl)piperazin-1-yl)-6-bromo-1-methyl-2-oxo-1,2-dihydro-1,5-naphthyridine-3-carbonitrile] | > 240000 | 520 | 250 |  |  | 
16 | Cn1c(=O)c(C#N)c(N2CCN(Cc3ccccc3NS(C)(=O)=O)CC2)c2nc(Br)ccc21 [Example 212, N-(2-((4-(6-bromo-3-cyano-1-methyl-2-oxo-1,2-dihydro-1,5-naphthyridin-4-yl)piperazin-1-yl)methyl)phenyl)methanesulfonamide] | > 240000 | 1140 | 2200 |  |  | 
17 | Cn1c(=O)c(C#N)c(N2CCN(Cc3ccc(C#N)cc3F)CC2)c2nc(Cl)ccc21 [Example 379, 6-chloro-4-{4-[(4-cyano-2-fluorophenyl)methyl]piperazin-1-yl}-1-methyl-2-oxo-1,2-dihydro-1,5-naphthyridine-3-carbonitrile] | > 240000 | 7840 | 380 |  |  | 
18 | Cn1c(=O)c(C#N)c(N2CCN(Cc3c(O)cccc3Cl)CC2)c2nc(Br)ccc21 [Example 390, 6-bromo-4-{4-[(2-chloro-6-hydroxyphenyl)methyl]piperazin-1-yl}-1-methyl-2-oxo-1,2-dihydro-1,5-naphthyridine-3-carbonitrile] | > 240000 | 800 | 870 |  |  | 
